Columns and labels:
Activated CDC42 kinase 1 = Activated CDC42 kinase 1 (Homo sapiens, UniProt Q07912); assay type: functional, cell-based, T-cell
[1] = biological target: T1, MAP kinase-activated protein kinase 3 (Homo sapiens, UniProt Q16644); assay type: functional, cell-based, Monocyte
[2] = biological target: T2, MAP kinase-activated protein kinase 2 (Homo sapiens, UniProt P49137); assay type: functional, cell-based, Monocyte
[3] = biological target: T1, MAP kinase-activated protein kinase 3; assay type: functional, cell-based, Monocyte; remark: listed apart in the source
[4] = biological target: T3, MAP kinase-activated protein kinase 5 (Homo sapiens, UniProt Q8IW41); assay type: functional, cell-based, Monocyte
T3 sequence (Q8IW41 whole entry): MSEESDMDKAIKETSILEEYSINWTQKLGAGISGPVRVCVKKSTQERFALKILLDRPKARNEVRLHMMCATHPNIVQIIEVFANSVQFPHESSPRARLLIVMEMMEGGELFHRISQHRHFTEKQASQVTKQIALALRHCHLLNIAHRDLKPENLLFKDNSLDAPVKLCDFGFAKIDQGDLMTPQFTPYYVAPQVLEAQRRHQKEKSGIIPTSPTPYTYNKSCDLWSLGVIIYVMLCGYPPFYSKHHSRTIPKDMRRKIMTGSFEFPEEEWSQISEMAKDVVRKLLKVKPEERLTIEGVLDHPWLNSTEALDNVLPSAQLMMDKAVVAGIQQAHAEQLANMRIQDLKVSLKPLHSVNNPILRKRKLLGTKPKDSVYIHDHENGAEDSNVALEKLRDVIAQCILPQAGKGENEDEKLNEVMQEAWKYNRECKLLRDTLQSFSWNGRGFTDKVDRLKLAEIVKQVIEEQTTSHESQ

[5] = biological target: T2, MAP kinase-activated protein kinase 2; assay type: functional, cell-based, Monocyte; remark: listed apart in the source
[6] = biological target: T3, MAP kinase-activated protein kinase 5; assay type: functional, cell-based, Monocyte; remark: listed apart in the source
[7] = biological target: T2, MAP kinase-activated protein kinase 2; assay type: functional, cell-based, Monocyte; remark: listed apart in the source
[8] = biological target: T2, MAP kinase-activated protein kinase 2; assay type: functional, cell-based, Monocyte; remark: listed apart in the source
[9] = biological target: T3, MAP kinase-activated protein kinase 5; assay type: functional, cell-based, Monocyte; remark: listed apart in the source
[10] = biological target: T1, MAP kinase-activated protein kinase 3; assay type: functional, cell-based, Monocyte; remark: listed apart in the source
[11] = biological target: Protein-arginine deiminase type-4 (Homo sapiens, UniProt Q9UM07); assay type: functional
Protein-arginine deiminase type-4, sequence (Q9UM07 whole entry): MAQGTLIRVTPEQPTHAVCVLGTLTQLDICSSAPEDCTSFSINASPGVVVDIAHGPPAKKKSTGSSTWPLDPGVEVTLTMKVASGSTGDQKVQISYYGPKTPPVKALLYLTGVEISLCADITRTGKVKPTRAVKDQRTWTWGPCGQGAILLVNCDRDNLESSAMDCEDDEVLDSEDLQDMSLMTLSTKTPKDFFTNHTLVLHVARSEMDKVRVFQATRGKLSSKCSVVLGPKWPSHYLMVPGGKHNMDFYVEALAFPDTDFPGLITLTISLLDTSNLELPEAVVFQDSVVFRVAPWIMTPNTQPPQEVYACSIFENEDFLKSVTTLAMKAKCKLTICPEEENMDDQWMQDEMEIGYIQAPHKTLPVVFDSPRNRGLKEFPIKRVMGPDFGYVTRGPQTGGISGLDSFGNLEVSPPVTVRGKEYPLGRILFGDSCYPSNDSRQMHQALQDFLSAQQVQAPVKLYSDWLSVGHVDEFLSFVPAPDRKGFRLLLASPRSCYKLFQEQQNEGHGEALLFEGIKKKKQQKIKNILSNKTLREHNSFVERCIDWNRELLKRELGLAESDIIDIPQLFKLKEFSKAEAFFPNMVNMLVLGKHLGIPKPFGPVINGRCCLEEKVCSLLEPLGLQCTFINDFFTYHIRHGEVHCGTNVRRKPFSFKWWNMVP

[12] = biological target: Serine/threonine-protein kinase pim-1 (Homo sapiens) (UniProt P11309); details: Affinity Phenotypic Cellular Source Knowledge https://ashpublications.org/blood/article/123/6/905/32601/AZD1208-a-potent-and-selective-pan-Pim-kinase
Serine/threonine-protein kinase pim-1 (Homo sapiens), sequence (P11309 whole entry, looked up): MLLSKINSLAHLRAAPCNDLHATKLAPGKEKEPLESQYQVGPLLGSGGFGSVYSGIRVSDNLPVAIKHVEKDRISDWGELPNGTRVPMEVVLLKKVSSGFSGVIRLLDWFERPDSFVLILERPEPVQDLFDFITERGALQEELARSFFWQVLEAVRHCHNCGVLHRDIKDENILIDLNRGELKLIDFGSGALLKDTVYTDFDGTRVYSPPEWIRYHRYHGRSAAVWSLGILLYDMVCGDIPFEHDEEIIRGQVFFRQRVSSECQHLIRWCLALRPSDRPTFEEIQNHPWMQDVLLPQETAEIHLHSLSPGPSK

[13] = biological target: Serine/threonine-protein kinase pim-2 (Homo sapiens) (UniProt Q9P1W9); assay: Affinity Phenotypic Cellular interaction: (Antiproliferative activity against AML cell lines (EOL-1, KG-1a, Kasumi-3, MV4-11, MOLM-16)) EUB0001547a PIM2; assay type: functional; design: recommended concentration 100 nM; details: Affinity Phenotypic Cellular Source Knowledge https://ashpublications.org/blood/article/123/6/905/32601/AZD1208-a-potent-and-selective-pan-Pim-kinase
Serine/threonine-protein kinase pim-2 (Homo sapiens), sequence (Q9P1W9 whole entry, looked up): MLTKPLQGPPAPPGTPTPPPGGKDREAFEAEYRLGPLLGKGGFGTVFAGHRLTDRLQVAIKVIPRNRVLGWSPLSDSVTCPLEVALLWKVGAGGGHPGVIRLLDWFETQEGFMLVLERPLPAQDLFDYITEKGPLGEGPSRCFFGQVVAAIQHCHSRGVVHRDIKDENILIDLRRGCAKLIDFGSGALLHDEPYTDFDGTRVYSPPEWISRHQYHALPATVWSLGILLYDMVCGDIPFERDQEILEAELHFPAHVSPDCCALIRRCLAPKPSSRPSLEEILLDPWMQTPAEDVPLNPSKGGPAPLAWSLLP

[14] = biological target: Serine/threonine-protein kinase pim-3 (Homo sapiens) (UniProt Q86V86); details: Affinity Phenotypic Cellular Source Knowledge https://ashpublications.org/blood/article/123/6/905/32601/AZD1208-a-potent-and-selective-pan-Pim-kinase
[15] = biological target: T4, Bromodomain testis-specific protein (Homo sapiens, UniProt Q58F21); assay: Affinity Phenotypic Cellular interaction: (Meso-scale discovery human IL6 assay (cytokine production in LPS stimulated human WB)) EUB0000102c BRDT; assay type: functional, tissue-based, Blood; design: mode of action Inhibitor, recommended concentration 1 uM
[16] = biological target: T4, Bromodomain testis-specific protein; assay: Affinity Phenotypic Cellular interaction: (Meso-scale discovery human IL6 assay (cytokine production in LPS stimulated PBMC cells)) EUB0000102c BRDT; assay type: functional, cell-based; design: mode of action Inhibitor, recommended concentration 1 uM
[17] = biological target: T5, Bromodomain-containing protein 3 (Homo sapiens, UniProt Q15059); assay type: functional, cell-based, PBMC
T5 sequence (Q15059 whole entry): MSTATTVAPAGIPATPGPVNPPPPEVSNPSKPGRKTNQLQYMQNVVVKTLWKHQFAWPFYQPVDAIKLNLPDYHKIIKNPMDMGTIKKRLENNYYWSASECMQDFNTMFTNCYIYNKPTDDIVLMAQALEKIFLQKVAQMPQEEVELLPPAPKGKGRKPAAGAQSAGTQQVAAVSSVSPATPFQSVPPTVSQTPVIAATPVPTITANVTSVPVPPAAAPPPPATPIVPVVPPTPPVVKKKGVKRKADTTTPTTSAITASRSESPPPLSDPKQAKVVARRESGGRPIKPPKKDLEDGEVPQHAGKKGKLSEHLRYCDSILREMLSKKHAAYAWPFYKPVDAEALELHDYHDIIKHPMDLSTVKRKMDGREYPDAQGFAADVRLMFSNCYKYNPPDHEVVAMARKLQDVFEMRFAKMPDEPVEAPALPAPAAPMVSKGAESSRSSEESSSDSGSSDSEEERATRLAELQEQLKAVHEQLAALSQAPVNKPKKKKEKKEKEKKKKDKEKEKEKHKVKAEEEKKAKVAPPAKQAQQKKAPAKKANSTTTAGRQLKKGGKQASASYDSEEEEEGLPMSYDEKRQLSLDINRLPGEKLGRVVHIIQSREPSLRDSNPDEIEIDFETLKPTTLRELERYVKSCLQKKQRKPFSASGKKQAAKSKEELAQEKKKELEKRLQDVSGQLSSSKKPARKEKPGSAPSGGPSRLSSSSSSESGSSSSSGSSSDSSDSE

[18] = biological target: T4, Bromodomain testis-specific protein; assay: Affinity Phenotypic Cellular interaction: (Meso-scale discovery human IL6 assay (cytokine production in LPS stimmulated human WB)) EUB0000102c BRDT; assay type: functional, tissue-based, Blood; design: mode of action Inhibitor, recommended concentration 1 uM
[19] = biological target: T5, Bromodomain-containing protein 3; assay type: functional, tissue-based, Blood
[20] = biological target: T5, Bromodomain-containing protein 3; assay type: functional, tissue-based, Blood; remark: listed apart in the source
[21] = biological target: Serine/threonine-protein kinase mTOR (Homo sapiens) (UniProt P42345); assay: Affinity Phenotypic Cellular interaction: (Anti-phosphorylation of AKT(S473) and S6K(T389) in insulin-like growth factor-I (IGF-I)-induced Rat1, the PIK3CA mutant MDA361, and PTEN-null U87MG cells) EUB0000607a MTOR; assay type: functional, cell-based; design: recommended concentration 1 uM; details: Affinity Phenotypic Cellular Source Knowledge https://pubmed.ncbi.nlm.nih.gov/20068177/

T2 sequence (P49137 whole entry): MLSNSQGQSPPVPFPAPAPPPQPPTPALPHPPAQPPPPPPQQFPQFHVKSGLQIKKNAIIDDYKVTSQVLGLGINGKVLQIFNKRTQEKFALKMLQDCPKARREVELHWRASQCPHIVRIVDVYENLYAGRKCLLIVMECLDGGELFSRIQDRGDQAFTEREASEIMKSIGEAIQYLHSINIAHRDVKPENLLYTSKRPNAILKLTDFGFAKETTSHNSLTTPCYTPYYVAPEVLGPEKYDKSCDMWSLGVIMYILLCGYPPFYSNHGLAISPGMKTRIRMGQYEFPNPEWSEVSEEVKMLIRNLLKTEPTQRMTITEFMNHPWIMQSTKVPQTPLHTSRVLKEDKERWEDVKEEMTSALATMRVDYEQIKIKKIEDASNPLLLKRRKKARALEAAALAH
T1 sequence (Q16644 whole entry): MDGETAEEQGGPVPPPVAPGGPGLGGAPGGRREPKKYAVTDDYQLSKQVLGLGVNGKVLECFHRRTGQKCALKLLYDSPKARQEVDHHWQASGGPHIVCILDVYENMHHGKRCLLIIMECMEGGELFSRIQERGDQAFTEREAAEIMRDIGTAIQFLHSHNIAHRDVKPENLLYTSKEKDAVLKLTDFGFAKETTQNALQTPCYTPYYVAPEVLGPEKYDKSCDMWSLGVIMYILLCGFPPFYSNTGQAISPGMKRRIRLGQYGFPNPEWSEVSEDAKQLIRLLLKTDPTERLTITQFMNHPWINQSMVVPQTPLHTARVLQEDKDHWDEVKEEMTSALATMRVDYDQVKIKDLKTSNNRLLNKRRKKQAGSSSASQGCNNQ
Activated CDC42 kinase 1, sequence (Q07912 whole entry): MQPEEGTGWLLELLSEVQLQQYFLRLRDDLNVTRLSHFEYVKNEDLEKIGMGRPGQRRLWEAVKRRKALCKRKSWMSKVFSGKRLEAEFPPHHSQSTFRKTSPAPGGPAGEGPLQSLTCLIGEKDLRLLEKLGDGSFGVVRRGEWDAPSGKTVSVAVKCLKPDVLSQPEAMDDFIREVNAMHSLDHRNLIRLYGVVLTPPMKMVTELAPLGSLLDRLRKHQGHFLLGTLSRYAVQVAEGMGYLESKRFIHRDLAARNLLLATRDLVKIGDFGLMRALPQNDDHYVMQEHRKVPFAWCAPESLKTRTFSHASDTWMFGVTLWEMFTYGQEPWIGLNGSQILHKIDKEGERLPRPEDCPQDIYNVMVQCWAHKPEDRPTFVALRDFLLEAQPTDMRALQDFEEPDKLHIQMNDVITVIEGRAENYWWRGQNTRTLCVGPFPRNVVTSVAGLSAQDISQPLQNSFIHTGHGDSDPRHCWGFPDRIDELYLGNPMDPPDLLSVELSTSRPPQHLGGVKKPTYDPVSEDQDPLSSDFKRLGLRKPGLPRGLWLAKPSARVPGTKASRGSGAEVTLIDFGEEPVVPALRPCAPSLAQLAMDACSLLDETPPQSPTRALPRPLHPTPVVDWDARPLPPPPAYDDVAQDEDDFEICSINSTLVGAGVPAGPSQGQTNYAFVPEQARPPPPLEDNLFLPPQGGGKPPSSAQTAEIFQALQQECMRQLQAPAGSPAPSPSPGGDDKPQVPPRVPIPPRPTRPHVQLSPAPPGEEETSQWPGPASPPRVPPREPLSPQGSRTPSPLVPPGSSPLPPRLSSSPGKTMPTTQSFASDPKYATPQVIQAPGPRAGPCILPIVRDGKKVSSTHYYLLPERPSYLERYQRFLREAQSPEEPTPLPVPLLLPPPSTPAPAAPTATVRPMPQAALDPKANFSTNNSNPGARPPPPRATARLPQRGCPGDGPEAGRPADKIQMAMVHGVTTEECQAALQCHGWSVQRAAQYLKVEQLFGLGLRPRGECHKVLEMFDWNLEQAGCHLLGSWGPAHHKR

c1ccc(-c2oc3ncnc(NC[C@@H]4CCCO4)c3c2-c2ccccc2)cc1
IC50 (Activated CDC42 kinase 1): 2.41 µM

Cc1ccc(-c2ccc3c(ccc4sc5c(c43)NC[C@@H](C)NC5=O)n2)cn1
IC50 [1]: 2.09 µM
IC50 [2]: 0.13 µM
IC50 [3]: 1.26 µM
IC50 [4]: 2.09 µM
IC50 [5]: 1.26 µM
IC50 [6]: 1.26 µM
IC50 [7]: 2.09 µM
IC50 [8]: 2.78 µM
IC50 [9]: 2.78 µM
IC50 [10]: 2.78 µM

CCn1c(-c2nc3cc(C(=O)N4CCCC(N)C4)ccc3n2C)cc2ccccc21 (configuration not stated)
IC50 [11]: 0.05 µM

N[C@@H]1CCCN(c2c(/C=C3\SC(=O)NC3=O)cccc2-c2ccccc2)C1
GI50 [12]: < 1 µM
GI50 [13]: < 1 µM
GI50 [14]: < 1 µM

COc1cc2c(cc1-c1c(C)noc1C)ncc1[nH]c(=O)n([C@H](C)c3ccccn3)c12
IC50 [15]: 1.26 µM
IC50 [16]: 0.16 µM
IC50 [17]: 0.16 µM
IC50 [18]: 1.26 µM
IC50 [19]: 1.26 µM
IC50 [20]: 1.26 µM

CNC(=O)Nc1ccc(-c2nc(N3CC4CCC(C3)O4)c3cnn(C4CCC5(CC4)OCCO5)c3n2)cc1
ED50 [21]: 0.2 µM
